Consider 8 molecules from patent publication US20250228913A1, “STABILIZED OMEGA-3 OPHTHALMIC COMPOSITIONS” (Allergan, Inc., priority 2014, published 2025).

Data set [1] can be described thus: Physical appearance of omega-3 emulsions on storage. Format: physicochemical. The conditions noted are these: added in the oil phase.
The nature of data set [2]: Physical and chemical stability monitoring of emulsion prototypes with different antioxidants and additives. The protocol:
A variety of ophthalmic compositions were evaluated which contained antioxidants with the intent to prevent the degradation of the omega-3 oil components. A common problem with omega-3 oils is their propensity to degrade and become rancid over time.
Emulsion prototypes were designed using a range of excipients including different surfactants, antioxidants and aqueous additives. The physical and chemical stability of these prototype formulations were monitored over 3, 6 and/or 12 months at accelerated and/or long-term storage conditions. […] Details of these stability studies are provided in the examples herein.

A short description of data set [3]: Chemical stability of omega-3 oils in emulsions (FIG. 1, FIG. 2). The conditions noted are these: emulsions of Table 10.

Entries after “also recorded” stand apart in the source; their conditions may differ. Like-named read-outs stand apart in the source and are kept apart here.

Regarding `COc1ccc(O)c(C(C)(C)C)c1` [BHA, Butylated hydroxyanisole], the “Effect on physical stability of omega-3 oils in emulsion” value in data set [1] is “improved physical stability”. In addition, the “Effect of antioxidant or additive on stability of omega-3 oils” value (“Effect of antioxidant or additive” for short) in data set [2] (in ophthalmic emulsions) was “stabilizing effect”.
Consider `Cc1cc(C(C)(C)C)c(O)c(C(C)(C)C)c1` [BHT, 2,6-bis(1,1-dimethylethyl)-4-methylphenol], for which, in data set [1], the “Effect on physical stability of omega-3 oils in emulsion” value is reported as “improved physical stability”. Moreover, the “Effect of antioxidant or additive” value in data set [2] is given as “stabilizing effect”.
As to `O=C([O-])CN(CCN(CC(=O)[O-])CC(=O)O)CC(=O)O.[Na+].[Na+]` [EDTA, edetate disodium], the “Effect of excipient on chemical stability of omega-3 oils in emulsion” value (from here on “Effect of excipient”) in data set [3] is on record as “No significant impact”. The “Effect of antioxidant or additive” value in data set [2] (in ophthalmic emulsions) is given as “did not impact stability”.
As for `CC(=O)Oc1c(C)c(C)c2c(c1C)CCC(C)(CCC[C@H](C)CCC[C@H](C)CCCC(C)C)O2` (stereo partly drawn) [Vitamin E acetate], the “Effect of antioxidant or additive” value in data set [2] (in ophthalmic emulsions) is on record as “did not show beneficial effects; also recorded: led to degradation of omega-3 oil”.
Take `Cc1c(C)c2c(c(C)c1O)CC[C@@](C)(CCC[C@H](C)CCC[C@H](C)CCCC(C)C)O2` [alpha tocopherol]: the “Effect of excipient” value in data set [3] was “worsened the chemical stability”.
On to `CC(=O)C(=O)O` [pyruvate], for which the “Effect of excipient” value in data set [3] is listed as “No significant impact”. Also, the “Effect of antioxidant or additive” value in data set [2] is “did not impact stability”.
For the molecule `OC[C@H]1O[C@H](O[C@H]2O[C@H](CO)[C@@H](O)[C@H](O)[C@H]2O)[C@H](O)[C@@H](O)[C@@H]1O` [trehalose], the “Effect of antioxidant or additive” value in data set [2] is reported as “did not impact stability”.
Same read-out and setting: under vitamin E stands “not effective”.
